Tests used:
Format in all cases: cell-based
[1] = biological target: BaF3_HER2WT cells (Homo sapiens, UniProt P04626); test: Cell growth inhibition assay (CellTiterGlo), BaF3_HER2WT; settings: 3-day treatment, CellTiterGlo, read-out: Cell growth inhibition activity, HER2 WT
[2] = biological target: BaF3_HER2YVMA cells (Homo sapiens, UniProt P04626, DUP772-775, cells depend on it); test: Cell growth inhibition assay (CellTiterGlo), BaF3_HER2YVMA; settings: 3-day treatment, CellTiterGlo, read-out: Cell growth inhibition activity, HER2 - YVMA
[3] = biological target: BaF3_EGFRWT cells (Homo sapiens, UniProt P00533); test: Cell growth inhibition assay (CellTiterGlo), BaF3_EGFRWT; settings: 3-day treatment, CellTiterGlo, read-out: Cell growth inhibition activity, EGFR WT
Chain of BaF3_EGFRWT cells (P00533 whole entry, change not shown): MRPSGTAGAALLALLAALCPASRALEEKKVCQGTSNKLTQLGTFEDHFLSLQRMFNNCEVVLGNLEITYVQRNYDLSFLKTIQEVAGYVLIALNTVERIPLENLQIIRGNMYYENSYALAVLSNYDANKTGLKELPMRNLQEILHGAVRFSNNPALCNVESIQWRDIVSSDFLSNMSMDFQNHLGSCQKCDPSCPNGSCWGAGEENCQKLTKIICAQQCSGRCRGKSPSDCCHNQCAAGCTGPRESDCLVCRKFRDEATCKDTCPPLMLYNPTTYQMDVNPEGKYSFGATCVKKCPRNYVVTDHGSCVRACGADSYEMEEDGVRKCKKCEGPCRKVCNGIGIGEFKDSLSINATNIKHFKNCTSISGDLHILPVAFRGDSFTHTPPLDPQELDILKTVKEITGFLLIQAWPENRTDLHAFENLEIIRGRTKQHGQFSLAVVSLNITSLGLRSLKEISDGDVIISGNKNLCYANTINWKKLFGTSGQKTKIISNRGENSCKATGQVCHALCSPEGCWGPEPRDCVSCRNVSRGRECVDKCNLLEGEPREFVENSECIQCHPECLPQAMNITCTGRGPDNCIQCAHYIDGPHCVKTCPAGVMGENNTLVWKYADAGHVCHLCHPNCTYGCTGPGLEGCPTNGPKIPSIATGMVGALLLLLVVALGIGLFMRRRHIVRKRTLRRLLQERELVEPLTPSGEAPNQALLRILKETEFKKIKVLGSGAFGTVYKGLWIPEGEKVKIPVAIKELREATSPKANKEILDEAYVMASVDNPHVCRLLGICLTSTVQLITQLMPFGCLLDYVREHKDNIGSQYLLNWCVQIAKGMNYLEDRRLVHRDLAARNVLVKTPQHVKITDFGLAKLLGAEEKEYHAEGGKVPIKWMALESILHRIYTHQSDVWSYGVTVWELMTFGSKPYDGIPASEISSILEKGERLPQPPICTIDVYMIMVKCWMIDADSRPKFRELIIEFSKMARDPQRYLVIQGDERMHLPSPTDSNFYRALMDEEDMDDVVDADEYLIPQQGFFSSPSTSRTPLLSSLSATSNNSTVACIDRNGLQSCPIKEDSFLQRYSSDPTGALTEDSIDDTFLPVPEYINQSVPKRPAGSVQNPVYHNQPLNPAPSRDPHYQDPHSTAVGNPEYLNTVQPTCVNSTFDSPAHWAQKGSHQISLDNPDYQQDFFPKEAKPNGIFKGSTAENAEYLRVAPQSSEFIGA

Chain of BaF3_HER2WT cells (P04626 whole entry, change not shown): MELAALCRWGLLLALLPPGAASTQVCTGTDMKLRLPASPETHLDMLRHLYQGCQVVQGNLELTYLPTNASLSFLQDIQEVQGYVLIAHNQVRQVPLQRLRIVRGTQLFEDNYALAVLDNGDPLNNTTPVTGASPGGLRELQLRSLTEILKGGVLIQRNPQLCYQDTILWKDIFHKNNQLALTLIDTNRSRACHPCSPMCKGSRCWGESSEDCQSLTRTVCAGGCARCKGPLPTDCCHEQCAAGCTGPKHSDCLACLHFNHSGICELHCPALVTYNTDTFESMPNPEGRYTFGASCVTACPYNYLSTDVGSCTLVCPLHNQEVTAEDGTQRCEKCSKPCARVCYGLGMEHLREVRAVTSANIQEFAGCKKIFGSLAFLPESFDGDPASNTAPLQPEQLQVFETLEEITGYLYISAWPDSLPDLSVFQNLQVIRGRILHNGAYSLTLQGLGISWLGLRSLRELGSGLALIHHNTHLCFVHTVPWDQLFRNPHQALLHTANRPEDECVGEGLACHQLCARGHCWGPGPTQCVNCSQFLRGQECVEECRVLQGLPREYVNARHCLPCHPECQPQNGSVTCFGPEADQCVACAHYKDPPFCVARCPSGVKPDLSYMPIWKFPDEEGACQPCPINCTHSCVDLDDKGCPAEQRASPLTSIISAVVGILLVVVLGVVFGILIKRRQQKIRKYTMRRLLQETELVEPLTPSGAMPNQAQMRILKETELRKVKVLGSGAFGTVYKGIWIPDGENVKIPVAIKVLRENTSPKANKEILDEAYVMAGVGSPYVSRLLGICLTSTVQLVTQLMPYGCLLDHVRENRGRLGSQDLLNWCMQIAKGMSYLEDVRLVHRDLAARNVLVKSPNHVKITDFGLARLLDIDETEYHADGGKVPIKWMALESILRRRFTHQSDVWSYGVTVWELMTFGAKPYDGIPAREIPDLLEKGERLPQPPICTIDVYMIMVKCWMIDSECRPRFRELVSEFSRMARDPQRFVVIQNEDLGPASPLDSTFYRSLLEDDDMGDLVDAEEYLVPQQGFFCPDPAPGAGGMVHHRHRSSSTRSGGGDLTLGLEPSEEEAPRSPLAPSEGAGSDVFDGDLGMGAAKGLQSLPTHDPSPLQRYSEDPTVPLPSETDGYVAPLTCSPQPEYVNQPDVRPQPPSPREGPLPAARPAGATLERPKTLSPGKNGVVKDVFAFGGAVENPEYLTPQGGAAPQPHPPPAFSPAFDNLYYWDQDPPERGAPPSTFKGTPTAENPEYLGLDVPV
Chain of BaF3_HER2YVMA cells (P04626 with tags, fused parts or gaps DUP772-775): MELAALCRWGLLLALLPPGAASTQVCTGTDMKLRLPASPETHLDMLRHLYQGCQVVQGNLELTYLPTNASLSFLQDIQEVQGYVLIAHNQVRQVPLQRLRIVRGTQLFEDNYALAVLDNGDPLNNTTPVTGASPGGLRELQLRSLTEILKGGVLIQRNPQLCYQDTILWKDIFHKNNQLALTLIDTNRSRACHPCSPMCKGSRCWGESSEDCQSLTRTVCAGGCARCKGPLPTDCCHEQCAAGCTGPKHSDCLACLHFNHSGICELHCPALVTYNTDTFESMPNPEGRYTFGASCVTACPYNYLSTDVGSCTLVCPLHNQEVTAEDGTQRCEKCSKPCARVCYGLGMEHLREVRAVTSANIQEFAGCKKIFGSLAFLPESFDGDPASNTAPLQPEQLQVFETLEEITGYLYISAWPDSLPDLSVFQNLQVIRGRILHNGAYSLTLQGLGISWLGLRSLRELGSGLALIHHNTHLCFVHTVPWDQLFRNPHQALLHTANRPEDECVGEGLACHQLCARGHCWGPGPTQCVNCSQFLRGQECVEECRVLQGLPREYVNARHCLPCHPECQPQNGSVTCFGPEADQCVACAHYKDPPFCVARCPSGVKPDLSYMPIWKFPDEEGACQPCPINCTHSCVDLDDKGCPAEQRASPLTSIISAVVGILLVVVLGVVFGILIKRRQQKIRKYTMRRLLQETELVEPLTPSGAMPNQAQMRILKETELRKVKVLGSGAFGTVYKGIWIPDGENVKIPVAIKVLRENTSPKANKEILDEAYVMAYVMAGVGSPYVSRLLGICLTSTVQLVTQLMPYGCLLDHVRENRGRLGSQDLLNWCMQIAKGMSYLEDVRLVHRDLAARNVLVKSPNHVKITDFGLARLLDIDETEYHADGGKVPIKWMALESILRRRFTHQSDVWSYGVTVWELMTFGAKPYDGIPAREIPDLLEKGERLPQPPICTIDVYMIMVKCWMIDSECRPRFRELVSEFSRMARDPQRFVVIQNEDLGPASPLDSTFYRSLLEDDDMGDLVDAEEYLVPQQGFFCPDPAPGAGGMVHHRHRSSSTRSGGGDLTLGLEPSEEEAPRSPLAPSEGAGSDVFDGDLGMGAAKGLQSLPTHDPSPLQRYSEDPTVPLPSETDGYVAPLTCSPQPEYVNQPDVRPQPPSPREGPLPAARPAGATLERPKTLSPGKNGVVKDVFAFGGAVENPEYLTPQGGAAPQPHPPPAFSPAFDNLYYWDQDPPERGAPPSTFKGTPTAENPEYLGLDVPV

SMILES	GI50 [1] [nM]	GI50 [2] [nM]	GI50 [3] [nM]
C=CC(=O)N1CC2(CC(c3ccn4ncnc(Nc5ccc(Oc6ccn7ncnc7c6)c(C)c5)c34)C2)C1 [Example 17, 1-(6-(4-((4-([1,2,4]triazolo[1,5-a]pyridin-7-yloxy)-3-methylphenyl)amino)pyrrolo[2,1-f][1,2,4]triazin-5-yl)-2-azaspiro[3.3]heptan-2-yl)prop-2-en-1-one]	< 200	< 200	1500 to 5000
C=C(C(=O)O)C(=O)N1CCC(c2ccn3ncnc(Nc4ccc(Oc5ccn6ncnc6c5)c(C)c4)c23)CC1 [Example 20, 2-(4-(4-((4-([1,2,4]triazolo[1,5-a]pyridin-7-yloxy)-3-methylphenyl)amino)pyrrolo[2,1-f][1,2,4]triazin-5-yl)piperidine-1-carbonyl)acrylic acid]	1500 to 5000	1500 to 5000	1500 to 5000
Cc1cc(Nc2ncnn3ccc(C4CCN(C(=O)/C=C/CN5CCN(C)CC5)CC4)c23)ccc1Oc1ccn2ncnc2c1 [Example 24, (E)-1-(4-(4-((4-([1,2,4]triazolo[1,5-a]pyridin-7-yloxy)-3-methylphenyl)amino)pyrrolo[2,1-f][1,2,4]triazin-5-yl)piperidin-1-yl)-4-(4-methylpiperazin-1-yl)but-2-en-1-one]	< 200	500 to 1500	1500 to 5000
Cc1cc(Nc2ncnn3ccc(C4CCN(C(=O)/C=C/[C@H]5CCCN5C)CC4)c23)ccc1Oc1ccn2ncnc2c1 [Example 25, (R,E)-1-(4-(4-((4-([1,2,4]triazolo[1,5-a]pyridin-7-yloxy)-3-methylphenyl)amino)pyrrolo[2,1-f][1,2,4]triazin-5-yl)piperidin-1-yl)-3-(1-methylpyrrolidin-2-yl)prop-2-en-1-one]	< 200	< 200	1500 to 5000
C=C(F)C(=O)N1CC=C(c2ccn3ncnc(Nc4ccc(Oc5ccn6ncnc6c5)c(C)c4)c23)CC1 [Example 26, 1-(4-(4-((4-([1,2,4]triazolo[1,5-a]pyridin-7-yloxy)-3-methylphenyl)amino)pyrrolo[2,1-f][1,2,4]triazin-5-yl)-3,6-dihydropyridin-1(2H)-yl)-2-fluoroprop-2-en-1-one]	200 to 500	1500 to 5000	1500 to 5000
C=C(C#N)C(=O)N1CCC(c2ccn3ncnc(Nc4ccc(Oc5ccn6ncnc6c5)c(C)c4)c23)CC1 [Example 27, 2-(4-(4-((4-([1,2,4]triazolo[1,5-a]pyridin-7-yloxy)-3-methylphenyl)amino)pyrrolo[2,1-f][1,2,4]triazin-5-yl)piperidine-1-carbonyl)acrylonitrile]	500 to 1500	1500 to 5000	1500 to 5000
C=CC(=O)N1CC=C(c2ccn3ncnc(Nc4ccc(Oc5ccn6ncnc6c5)c(C)c4)c23)C1 [Example 28, 1-(3-(4-((4-([1,2,4]triazolo[1,5-a]pyridin-7-yloxy)-3-methylphenyl)amino)pyrrolo[2,1-f][1,2,4]triazin-5-yl)-2,5-dihydro-1H-pyrrol-1-yl)prop-2-en-1-one acetate]	< 200	500 to 1500	1500 to 5000
Cc1cc(Nc2ncnn3ccc(C4=CCN(C(=O)/C=C/CN(C)C)C4)c23)ccc1Oc1ccn2ncnc2c1 [Example 29, (E)-1-(3-(4-((4-([1,2,4]triazolo[1,5-a]pyridin-7-yloxy)-3-methylphenyl)amino)pyrrolo[2,1-f][1,2,4]triazin-5-yl)-2,5-dihydro-1H-pyrrol-1-yl)-4-(dimethylamino)but-2-en-1-one acetate]	< 200	1500 to 5000	1500 to 5000
C=C(CN(C)C)C(=O)N1C2C=C(c3ccn4ncnc(Nc5ccc(Oc6ccn7ncnc7c6)c(C)c5)c34)CC1CC2 (stereo not drawn) [Example 30, 1-(3-(4-((4-([1,2,4]triazolo[1,5-a]pyridin-7-yloxy)-3-methylphenyl)amino)pyrrolo[2,1-f][1,2,4]triazin-5-yl)-8-azabicyclo[3.2.1]oct-2-en-8-yl)-2-((dimethylamino)methyl)prop-2-en-1-one acetate]	< 200	< 200	1500 to 5000
Cc1cc(Nc2ccn3ncnc(C4CC5CCC(C4)N5C(=O)/C=C/CN(C)C)c23)ccc1Oc1ccn2cnnc2c1 (stereo not drawn) [Example 33, (E)-1-(3-(5-((4-([1,2,4]triazolo[4,3-a]pyridin-7-yloxy)-3-methylphenyl)amino)pyrrolo[2,1-f][1,2,4]triazin-4-yl)-8-azabicyclo[3.2.1]octan-8-yl)-4-(dimethylamino)but-2-en-1-one acetate]	< 200	200 to 500	1500 to 5000
Cc1cc(Nc2ncnn3ccc(C4CCN(C(=O)C(F)Cl)CC4)c23)ccc1Oc1ccn2ncnc2c1 (stereo not drawn) [Example 35, 1-(4-(4-((4-([1,2,4]triazolo[1,5-a]pyridin-7-yloxy)-3-methylphenyl)amino)pyrrolo[2,1-f][1,2,4]triazin-5-yl)piperidin-1-yl)-2-chloro-2-fluoroethan-1-one acetate]	< 200	< 200	1500 to 5000
Cc1cc(Nc2ncnn3ccc(C4CCN(C(=O)C5CC(=O)N5)CC4)c23)ccc1Oc1ccn2ncnc2c1 (stereo not drawn) [Example 36, 4-(4-(4-((4-([1,2,4]triazolo[1,5-a]pyridin-7-yloxy)-3-methylphenyl)amino)pyrrolo[2,1-f][1,2,4]triazin-5-yl)piperidine-1-carbonyl)azetidin-2-one acetate]	1500 to 5000	1500 to 5000	1500 to 5000
Cc1cc(Nc2ncnn3ccc(C4CN(C(=O)/C=C/CN5CCOCC5)C4)c23)ccc1Oc1ccn2ncnc2c1 [Example 37, (E)-1-(3-(4-((4-([1,2,4]triazolo[1,5-a]pyridin-7-yloxy)-3-methylphenyl)amino)pyrrolo[2,1-f][1,2,4]triazin-5-yl)azetidin-1-yl)-4-morpholinobut-2-en-1-one]	< 200	< 200	1500 to 5000
Cc1cc(Nc2ncnn3ccc(C4CN(C(=O)/C=C/CN5CC(F)C5)C4)c23)ccc1Oc1ccn2ncnc2c1 [Example 38, (E)-1-(3-(4-((4-([1,2,4]triazolo[1,5-a]pyridin-7-yloxy)-3-methylphenyl)amino)pyrrolo[2,1-f][1,2,4]triazin-5-yl)azetidin-1-yl)-4-(3-fluoroazetidin-1-yl)but-2-en-1-one]	< 200	< 200	1500 to 5000
COC/C=C/C(=O)N1CC(c2ccn3ncnc(Nc4ccc(Oc5ccn6ncnc6c5)c(C)c4)c23)C1 [Example 40, (E)-1-(3-(4-((4-([1,2,4]triazolo[1,5-a]pyridin-7-yloxy)-3-methylphenyl)amino)pyrrolo[2,1-f][1,2,4]triazin-5-yl)azetidin-1-yl)-4-methoxybut-2-en-1-one]	200 to 500	200 to 500	1500 to 5000
COC1CCN(C/C=C/C(=O)N2CC(c3ccn4ncnc(Nc5ccc(Oc6ccn7ncnc7c6)c(C)c5)c34)C2)C1 (stereo not drawn) [Example 41, (E)-1-(3-(4-((4-([1,2,4]triazolo[1,5-a]pyridin-7-yloxy)-3-methylphenyl)amino)pyrrolo[2,1-f][1,2,4]triazin-5-yl)azetidin-1-yl)-4-(3-methoxypyrrolidin-1-yl)but-2-en-1-one]	< 200	< 200	1500 to 5000
COC1CCN(C/C=C/C(=O)N2CC(c3ccn4ncnc(Nc5ccc(Oc6ccn7ncnc7c6)c(C)c5)c34)C2)CC1 [Example 42, (E)-1-(3-(4-((4-([1,2,4]triazolo[1,5-a]pyridin-7-yloxy)-3-methylphenyl)amino)pyrrolo[2,1-f][1,2,4]triazin-5-yl)azetidin-1-yl)-4-(4-methoxypiperidin-1-yl)but-2-en-1-one]	< 200	< 200	1500 to 5000
Cc1cc(Nc2ncnn3ccc(C4CN(C(=O)/C=C/CC(C)C)C4)c23)ccc1Oc1ccn2ncnc2c1 [Example 43, (E)-1-(3-(4-((4-([1,2,4]triazolo[1,5-a]pyridin-7-yloxy)-3-methylphenyl)amino)pyrrolo[2,1-f][1,2,4]triazin-5-yl)azetidin-1-yl)-5-methylhex-2-en-1-one]	< 200	200 to 500	1500 to 5000
C=CC(=O)N1CC2CCC(C1)N2c1ccn2ncnc(Nc3ccc(Oc4ccn5ncnc5c4)c(C)c3)c12 [Example 44, 1-(8-(4-((4-([1,2,4]triazolo[1,5-a]pyridin-7-yloxy)-3-methylphenyl)amino)pyrrolo[2,1-f][1,2,4]triazin-5-yl)-3,8-diazabicyclo[3.2.1]octan-3-yl)prop-2-en-1-one]	< 200	< 200	1500 to 5000
Cc1cc(Nc2ncnn3ccc(N4C5CCC4CN(C(=O)/C=C/CN(C)C)C5)c23)ccc1Oc1ccn2ncnc2c1 [Example 45, (E)-1-(8-(4-((4-([1,2,4]triazolo[1,5-a]pyridin-7-yloxy)-3-methylphenyl)amino)pyrrolo[2,1-f][1,2,4]triazin-5-yl)-3,8-diazabicyclo[3.2.1]octan-3-yl)-4-(dimethylamino)but-2-en-1-one]	< 200	< 200	1500 to 5000
C=CC(=O)N1C2CCC1CN(c1ccn3ncnc(Nc4ccc(Oc5ccn6ncnc6c5)c(C)c4)c13)C2 [Example 46, 1-(3-(4-((4-([1,2,4]triazolo[1,5-a]pyridin-7-yloxy)-3-methylphenyl)amino)pyrrolo[2,1-f][1,2,4]triazin-5-yl)-3,8-diazabicyclo[3.2.1]octan-8-yl)prop-2-en-1-one]	< 200	< 200	200 to 500
Cc1cc(Nc2ncnn3ccc(N4CC5CCC(C4)N5C(=O)/C=C/CN(C)C)c23)ccc1Oc1ccn2ncnc2c1 [Example 47, (E)-1-(3-(4-((4-([1,2,4]triazolo[1,5-a]pyridin-7-yloxy)-3-methylphenyl)amino)pyrrolo[2,1-f][1,2,4]triazin-5-yl)-3,8-diazabicyclo[3.2.1]octan-8-yl)-4-(dimethylamino)but-2-en-1-one]	< 200	< 200	1500 to 5000
